Data reported in article PMC5513037, “Examining the influence of specificity ligands and ATP-competitive ligands on the overall effectiveness of bivalent kinase inhibitors” (Proteome Science, 2017).

What was measured:
Assay in all cases: KAM-matrix competition in K562 lysate;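 for 0.001 uM KAM: median log10 fold change of treatment over DMSO control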;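 for 0.01 uM KAM: median log10 fold change of treatment over DMSO control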;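 for 0.1 uM KAM: median log10 fold change of treatment over DMSO control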;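 for 1 uM KAM: median log10 fold change of treatment over DMSO control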;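 for 10 uM KAM: median log10 fold change of treatment over DMSO control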
Type in all cases: binding
[1] = molecular target: T1, NEK2 (Homo sapiens, UniProt P51955);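 for 0.001 uM KAM: median log10 fold change of treatment over DMSO control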;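 for 0.01 uM KAM: median log10 fold change of treatment over DMSO control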;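 for 0.1 uM KAM: median log10 fold change of treatment over DMSO control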;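 for 1 uM KAM: median log10 fold change of treatment over DMSO control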;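 for 10 uM KAM: median log10 fold change of treatment over DMSO control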
T1 construct: endogenous in cells; host or cells: K562
T1 sequence (P51955 1-445): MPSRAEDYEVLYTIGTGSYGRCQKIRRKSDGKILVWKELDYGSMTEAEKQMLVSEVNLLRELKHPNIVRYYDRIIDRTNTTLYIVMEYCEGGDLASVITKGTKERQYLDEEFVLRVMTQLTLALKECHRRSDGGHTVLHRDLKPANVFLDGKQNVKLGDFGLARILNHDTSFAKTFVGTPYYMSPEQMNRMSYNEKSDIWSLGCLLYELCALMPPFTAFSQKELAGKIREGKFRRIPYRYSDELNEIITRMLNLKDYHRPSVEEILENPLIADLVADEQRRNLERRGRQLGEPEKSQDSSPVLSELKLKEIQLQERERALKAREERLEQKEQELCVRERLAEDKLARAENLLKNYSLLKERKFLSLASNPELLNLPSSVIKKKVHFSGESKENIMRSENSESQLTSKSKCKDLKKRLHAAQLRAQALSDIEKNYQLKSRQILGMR
Description: (§1) Supplement 12953_2017_125_MOESM1_ESM.zip/MS_Supp Info.xlsx, sheet "KAM" | column: 10 uM KAM; 1 uM KAM; 0.1 uM KAM; 0.01 uM KAM; 0.001 uM KAM; RB50

[2] = molecular target: T2, JAK2 (Homo sapiens, UniProt O60674)
T2 construct: endogenous in cells; host or cells: K562
T2 sequence (O60674 whole entry): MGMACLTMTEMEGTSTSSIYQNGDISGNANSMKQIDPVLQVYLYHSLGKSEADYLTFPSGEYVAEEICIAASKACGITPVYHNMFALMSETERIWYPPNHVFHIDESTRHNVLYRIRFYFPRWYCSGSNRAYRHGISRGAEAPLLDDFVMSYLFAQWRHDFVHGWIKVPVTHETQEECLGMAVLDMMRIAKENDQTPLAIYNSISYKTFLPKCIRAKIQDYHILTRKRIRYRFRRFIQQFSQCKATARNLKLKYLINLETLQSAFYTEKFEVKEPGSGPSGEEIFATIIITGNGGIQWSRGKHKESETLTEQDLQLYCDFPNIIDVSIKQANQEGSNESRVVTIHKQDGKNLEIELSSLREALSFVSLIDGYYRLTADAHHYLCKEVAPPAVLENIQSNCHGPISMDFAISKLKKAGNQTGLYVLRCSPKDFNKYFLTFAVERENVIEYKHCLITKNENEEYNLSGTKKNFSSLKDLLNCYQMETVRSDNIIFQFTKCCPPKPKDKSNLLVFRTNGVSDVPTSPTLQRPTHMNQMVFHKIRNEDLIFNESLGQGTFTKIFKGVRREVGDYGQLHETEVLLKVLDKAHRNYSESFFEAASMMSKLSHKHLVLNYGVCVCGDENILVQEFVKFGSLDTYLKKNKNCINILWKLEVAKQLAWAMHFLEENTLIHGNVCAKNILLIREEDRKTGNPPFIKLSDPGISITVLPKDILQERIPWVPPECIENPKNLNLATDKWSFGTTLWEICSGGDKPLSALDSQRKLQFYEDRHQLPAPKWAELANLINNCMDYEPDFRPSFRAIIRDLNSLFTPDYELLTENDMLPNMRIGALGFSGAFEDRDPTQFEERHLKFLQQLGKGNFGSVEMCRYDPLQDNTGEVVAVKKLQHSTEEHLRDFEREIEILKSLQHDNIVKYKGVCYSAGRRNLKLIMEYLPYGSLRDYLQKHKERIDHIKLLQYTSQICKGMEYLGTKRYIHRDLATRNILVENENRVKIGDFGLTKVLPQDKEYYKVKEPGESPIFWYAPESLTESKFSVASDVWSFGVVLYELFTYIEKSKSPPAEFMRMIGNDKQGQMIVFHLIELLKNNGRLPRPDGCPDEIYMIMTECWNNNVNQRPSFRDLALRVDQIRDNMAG
Description: as §1

[3] = molecular target: T3, CDK2 (Homo sapiens, UniProt P24941)
T3 construct: endogenous in cells; host or cells: K562
Description: as §1

[4] = molecular target: T4, MAP2K3 (Homo sapiens, UniProt P46734);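 for 0.001 uM KAM: median log10 fold change of treatment over DMSO control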;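 for 0.01 uM KAM: median log10 fold change of treatment over DMSO control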;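 for 0.1 uM KAM: median log10 fold change of treatment over DMSO control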;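 for 1 uM KAM: median log10 fold change of treatment over DMSO control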;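 for 10 uM KAM: median log10 fold change of treatment over DMSO control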
T4 construct: endogenous in cells; host or cells: K562 cell lysate
T4 sequence (P46734 1-347): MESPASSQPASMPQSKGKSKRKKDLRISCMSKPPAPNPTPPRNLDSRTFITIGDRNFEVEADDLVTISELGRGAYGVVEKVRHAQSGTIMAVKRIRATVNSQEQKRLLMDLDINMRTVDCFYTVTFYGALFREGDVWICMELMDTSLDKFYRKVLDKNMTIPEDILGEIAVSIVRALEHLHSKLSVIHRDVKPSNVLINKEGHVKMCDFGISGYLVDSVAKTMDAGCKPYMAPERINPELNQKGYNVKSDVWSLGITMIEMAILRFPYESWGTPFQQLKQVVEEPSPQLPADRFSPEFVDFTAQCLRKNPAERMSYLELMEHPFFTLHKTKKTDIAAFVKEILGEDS
Description: as §1

[5] = molecular target: T5, STK16 (Homo sapiens, UniProt O75716)
T5 construct: K562 cell pellets were thawed on ice and resuspended in cold Lysis buffer; endogenous in cells; host or cells: K562
T5 sequence (O75716 whole entry): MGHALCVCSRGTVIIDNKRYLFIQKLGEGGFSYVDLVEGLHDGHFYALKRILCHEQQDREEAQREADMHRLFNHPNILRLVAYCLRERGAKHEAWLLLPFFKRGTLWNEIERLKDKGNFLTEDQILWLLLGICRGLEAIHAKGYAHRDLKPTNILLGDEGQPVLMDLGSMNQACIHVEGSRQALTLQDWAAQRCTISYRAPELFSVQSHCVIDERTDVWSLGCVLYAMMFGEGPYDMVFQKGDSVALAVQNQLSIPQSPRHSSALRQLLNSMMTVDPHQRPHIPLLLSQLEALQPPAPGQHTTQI
Description: as §1

[6] = molecular target: T6, MARK4 (Homo sapiens, UniProt Q96L34)
T6 construct: K562 cell pellets were thawed on ice and resuspended in cold Lysis buffer; endogenous in cells; host or cells: K562
T6 sequence (Q96L34 1-752): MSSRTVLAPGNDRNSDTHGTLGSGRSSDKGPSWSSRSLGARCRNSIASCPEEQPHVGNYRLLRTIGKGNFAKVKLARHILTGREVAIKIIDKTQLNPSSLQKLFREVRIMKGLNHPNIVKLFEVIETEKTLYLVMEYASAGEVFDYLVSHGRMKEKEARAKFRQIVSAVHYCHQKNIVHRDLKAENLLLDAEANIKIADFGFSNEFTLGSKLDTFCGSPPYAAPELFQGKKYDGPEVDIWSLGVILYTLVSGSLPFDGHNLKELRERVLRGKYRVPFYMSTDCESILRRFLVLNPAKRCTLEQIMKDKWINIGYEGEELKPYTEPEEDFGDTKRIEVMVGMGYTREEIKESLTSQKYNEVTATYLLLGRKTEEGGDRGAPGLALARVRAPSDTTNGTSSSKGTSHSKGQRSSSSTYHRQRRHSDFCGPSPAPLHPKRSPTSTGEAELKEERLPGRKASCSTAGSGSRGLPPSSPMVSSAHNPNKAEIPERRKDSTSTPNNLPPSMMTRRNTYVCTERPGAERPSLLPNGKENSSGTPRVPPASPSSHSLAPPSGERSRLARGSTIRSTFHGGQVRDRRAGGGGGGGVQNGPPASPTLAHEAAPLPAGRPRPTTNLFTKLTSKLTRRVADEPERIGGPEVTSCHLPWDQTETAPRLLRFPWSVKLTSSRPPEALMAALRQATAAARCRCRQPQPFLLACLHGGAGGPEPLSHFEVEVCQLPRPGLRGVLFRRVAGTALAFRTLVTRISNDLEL
Description: as §1

[7] = molecular target: T7, PRKDC (Homo sapiens, UniProt P78527);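 for 0.001 uM KAM: median log10 fold change of treatment over DMSO control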;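 for 0.01 uM KAM: median log10 fold change of treatment over DMSO control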;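 for 0.1 uM KAM: median log10 fold change of treatment over DMSO control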;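 for 1 uM KAM: median log10 fold change of treatment over DMSO control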;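 for 10 uM KAM: median log10 fold change of treatment over DMSO control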
T7 construct: endogenous in cells; host or cells: K562
Description: as §1

[8] = molecular target: T8, EPHA2 (Homo sapiens, UniProt P29317);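 for 0.001 uM KAM: median log10 fold change of treatment over DMSO control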;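 for 0.01 uM KAM: median log10 fold change of treatment over DMSO control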;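 for 0.1 uM KAM: median log10 fold change of treatment over DMSO control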;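 for 1 uM KAM: median log10 fold change of treatment over DMSO control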;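 for 10 uM KAM: median log10 fold change of treatment over DMSO control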
T8 construct: endogenous in cells; host or cells: K562
T8 sequence (P29317 24-976): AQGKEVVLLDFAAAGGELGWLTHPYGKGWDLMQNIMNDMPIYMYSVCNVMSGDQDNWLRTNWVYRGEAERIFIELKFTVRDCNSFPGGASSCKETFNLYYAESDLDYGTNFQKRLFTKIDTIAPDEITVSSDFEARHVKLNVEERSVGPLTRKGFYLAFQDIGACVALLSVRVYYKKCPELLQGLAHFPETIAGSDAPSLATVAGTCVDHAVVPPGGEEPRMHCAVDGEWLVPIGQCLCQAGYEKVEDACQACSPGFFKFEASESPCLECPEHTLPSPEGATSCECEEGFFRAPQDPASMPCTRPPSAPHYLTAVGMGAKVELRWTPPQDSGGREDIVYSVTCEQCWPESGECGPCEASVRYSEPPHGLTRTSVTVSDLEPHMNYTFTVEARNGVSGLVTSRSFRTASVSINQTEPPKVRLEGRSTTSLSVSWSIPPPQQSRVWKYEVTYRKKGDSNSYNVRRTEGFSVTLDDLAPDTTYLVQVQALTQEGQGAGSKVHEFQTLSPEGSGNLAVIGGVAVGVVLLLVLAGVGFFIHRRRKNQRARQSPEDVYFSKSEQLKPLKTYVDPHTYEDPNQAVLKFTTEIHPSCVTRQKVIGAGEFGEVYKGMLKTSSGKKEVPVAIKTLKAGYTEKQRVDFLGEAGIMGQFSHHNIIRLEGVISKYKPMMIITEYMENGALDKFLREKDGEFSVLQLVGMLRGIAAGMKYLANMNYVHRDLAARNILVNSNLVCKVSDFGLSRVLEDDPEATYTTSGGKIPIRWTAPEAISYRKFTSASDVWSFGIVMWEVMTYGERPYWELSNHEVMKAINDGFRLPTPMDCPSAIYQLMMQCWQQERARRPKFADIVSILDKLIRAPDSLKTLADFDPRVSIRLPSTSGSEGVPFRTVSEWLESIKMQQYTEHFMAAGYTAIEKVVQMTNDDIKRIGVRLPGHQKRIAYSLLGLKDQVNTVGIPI
Description: as §1

[9] = KAM 0.001-10 uM, read-out: RB50 (the source's name)
[10] = read-out: RB50 (the source's name)

SMILES: N#CCc1ccc(Nc2nc(NCCCN)cc(Nc3cc(C4CC4)[nH]n3)n2)cc1 [KAM]
- IC50 [1, 9]: 5.87 µM
- 0.001 uM KAM ([1]; relative to 0 uM KAM = 0): 0.005896
- 0.01 uM KAM ([1]; relative to 0 uM KAM = 0): 0.02457
- 0.1 uM KAM ([1]; relative to 0 uM KAM = 0): -0.07556
- 1 uM KAM ([1]; relative to 0 uM KAM = 0): -0.1875
- 10 uM KAM ([1]; relative to 0 uM KAM = 0): -0.3106
- median Log10 fold change ([2]; 0.001 uM KAM): -0.002638
- median Log10 fold change ([2]; 0.01 uM KAM): -0.00181
- median Log10 fold change ([2]; 0.1 uM KAM): -0.159
- median Log10 fold change ([2]; 1 uM KAM): -0.3349
- median Log10 fold change ([2]; 10 uM KAM): -0.4311
- IC50 [2, 10]: 909 nM
- median Log10 fold change ([3]; 0.001 uM KAM): -0.01597
- median Log10 fold change ([3]; 0.01 uM KAM): -0.009383
- median Log10 fold change ([3]; 0.1 uM KAM): -0.2687
- median Log10 fold change ([3]; 1 uM KAM): -0.5288
- median Log10 fold change ([3]; 10 uM KAM): -0.6805
- IC50 [3, 10]: 177 nM
- IC50 [4, 9]: > 10 µM
- 0.001 uM KAM ([4]; relative to 0 uM KAM = 0): 0.005145
- 0.01 uM KAM ([4]; relative to 0 uM KAM = 0): -0.01205
- 0.1 uM KAM ([4]; relative to 0 uM KAM = 0): -0.0928
- 1 uM KAM ([4]; relative to 0 uM KAM = 0): -0.1584
- 10 uM KAM ([4]; relative to 0 uM KAM = 0): -0.2828
- median Log10 fold change ([5]; 0.001 uM KAM): -0.0101
- median Log10 fold change ([5]; 0.01 uM KAM): -0.01878
- median Log10 fold change ([5]; 0.1 uM KAM): -0.1698
- median Log10 fold change ([5]; 1 uM KAM): -0.3768
- median Log10 fold change ([5]; 10 uM KAM): -0.4318
- IC50 [5, 10]: 673 nM
- median Log10 fold change ([6]; 0.001 uM KAM): -0.09809
- median Log10 fold change ([6]; 0.01 uM KAM): -0.06359
- median Log10 fold change ([6]; 0.1 uM KAM): -0.2055
- median Log10 fold change ([6]; 1 uM KAM): -0.3566
- median Log10 fold change ([6]; 10 uM KAM): -0.4457
- IC50 [6, 10]: 604 nM
- IC50 [7, 9]: > 10 µM
- 0.001 uM KAM ([7]; relative to 0 uM KAM = 0): -0.0162
- 0.01 uM KAM ([7]; relative to 0 uM KAM = 0): -0.0236
- 0.1 uM KAM ([7]; relative to 0 uM KAM = 0): -0.1053
- 1 uM KAM ([7]; relative to 0 uM KAM = 0): -0.1689
- 10 uM KAM ([7]; relative to 0 uM KAM = 0): -0.08641
- IC50 [8, 9]: > 10 µM
- 0.001 uM KAM ([8]; relative to 0 uM KAM = 0): -0.04778
- 0.01 uM KAM ([8]; relative to 0 uM KAM = 0): 0.0608
- 0.1 uM KAM ([8]; relative to 0 uM KAM = 0): 0.1233
- 1 uM KAM ([8]; relative to 0 uM KAM = 0): 0.3139
- 10 uM KAM ([8]; relative to 0 uM KAM = 0): 0.0956
